Reference: patent US20250171457A1, “NITROGEN-CONTAINING HETEROCYCLIC COMPOUND HAVING NRF2 ACTIVATION EFFECT” (CHUGAI SEIYAKU KABUSHIKI KAISHA, priority 2022, published 2025)

system: Nrf2 transcriptional activity (pARE-Luc reporter) in HepG2 cells; test: In vitro Nrf2 transcriptional activity measurement by ARE-dependent reporter assay in HepG2 cell; format: cell-based, human; conditions: Homo sapiens; HepG2 cells transfected with pARE-Luc, 4 hours at 37° C.; luciferase activity of Example 1-54 or Example 17-23 at 3.75 μM defined as 100%
Summary of the method: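 Luminescence readout (Bright-Glo) after 4 h, 37° C compound exposure of HepG2 cells carrying the ARE-luciferase vector pGL4.37. Each well converted to % response versus reference compound at 3.75 μM, and EC50 derived from dose-response curves.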

SMILES	EC50 [nM]
CN1CCn2ncc(-c3cc(Cl)c(C(=O)N4COc5c(cccc5-c5cc(N6C7CCC6COC7)c(C(=O)O)cc5F)C4)c(Cl)c3)c2C1 [Compound 3-2, 4-[3-[2,6-Dichloro-4-(5-methyl-6,7-dihydro-4H-pyrazolo[1,5-a]pyrazin-3-yl)benzoyl]-2,4-dihydro-1,3-benzoxazin-8-yl]-5-fluoro-2-(3-oxa-8-azabicyclo[3.2.1]octan-8-yl)benzoic acid]	6.8
COc1ccc(-c2cc(Cl)c(C(=O)N3COc4c(cccc4-c4cc(N5C6CCC5COC6)c(C(=O)O)cc4F)C3)c(Cl)c2)nn1 [Compound 3-3, 4-[3-[2,6-Dichloro-4-(6-methoxypyridazin-3-yl)benzoyl]-2,4-dihydro-1,3-benzoxazin-8-yl]-5-fluoro-2-(3-oxa-8-azabicyclo[3.2.1]octan-8-yl)benzoic acid]	9.4
Cn1nnc2c(-c3cc(Cl)c(C(=O)N4COc5c(cccc5-c5cc(N6C7CCC6COC7)c(C(=O)O)cc5F)C4)c(Cl)c3)cccc21 [Compound 3-4, 4-[3-[2,6-Dichloro-4-(1-methylbenzotriazol-4-yl)benzoyl]-2,4-dihydro-1,3-benzoxazin-8-yl]-5-fluoro-2-(3-oxa-8-azabicyclo[3.2.1]octan-8-yl)benzoic acid]	6.2
Cn1ncc2c(-c3cc(Cl)c(C(=O)N4COc5c(cccc5-c5cc(N6C7CCC6COC7)c(C(=O)O)cc5F)C4)c(Cl)c3)cncc21 [Compound 3-5, 4-[3-[2,6-Dichloro-4-(1-methylpyrazolo[3,4-c]pyridin-4-yl)benzoyl]-2,4-dihydro-1,3-benzoxazin-8-yl]-5-fluoro-2-(3-oxa-8-azabicyclo[3.2.1]octan-8-yl)benzoic acid]	6.9
Cn1cc2cncc(-c3cc(Cl)c(C(=O)N4COc5c(cccc5-c5cc(N6C7CCC6COC7)c(C(=O)O)cc5F)C4)c(Cl)c3)c2n1 [Compound 3-6, 4-[3-[2,6-Dichloro-4-(2-methylpyrazolo[4,3-c]pyridin-7-yl)benzoyl]-2,4-dihydro-1,3-benzoxazin-8-yl]-5-fluoro-2-(3-oxa-8-azabicyclo[3.2.1]octan-8-yl)benzoic acid]	9
Cn1ncc2c(-c3cc(Cl)c(C(=O)N4COc5c(cccc5-c5cc(N6C7CCC6COC7)c(C(=O)O)cc5F)C4)c(Cl)c3)cccc21 [Compound 3-7, 4-[3-[2,6-Dichloro-4-(1-methylindazol-4-yl)benzoyl]-2,4-dihydro-1,3-benzoxazin-8-yl]-5-fluoro-2-(3-oxa-8-azabicyclo[3.2.1]octan-8-yl)benzoic acid]	9.6
Cc1nc2c(-c3cc(Cl)c(C(=O)N4COc5c(cccc5-c5cc(N6C7CCC6COC7)c(C(=O)O)cc5F)C4)c(Cl)c3)cncc2n1C [Compound 3-8, 4-[3-[2,6-Dichloro-4-(2,3-dimethylimidazo[4,5-c]pyridin-7-yl)benzoyl]-2,4-dihydro-1,3-benzoxazin-8-yl]-5-fluoro-2-(3-oxa-8-azabicyclo[3.2.1]octan-8-yl)benzoic acid]	17
Cn1nnc2cc(-c3cc(Cl)c(C(=O)N4COc5c(cccc5-c5cc(N6C7CCC6COC7)c(C(=O)O)cc5F)C4)c(Cl)c3)cnc21 [Compound 3-9, 4-[3-[2,6-Dichloro-4-(3-methyltriazolo[4,5-b]pyridin-6-yl)benzoyl]-2,4-dihydro-1,3-benzoxazin-8-yl]-5-fluoro-2-(3-oxa-8-azabicyclo[3.2.1]octan-8-yl)benzoic acid]	10
Cn1nc2cncc(-c3cc(Cl)c(C(=O)N4COc5c(cccc5-c5cc(N6C7CCC6COC7)c(C(=O)O)cc5F)C4)c(Cl)c3)c2n1 [Compound 3-10, 4-[3-[2,6-Dichloro-4-(2-methyltriazolo[4,5-c]pyridin-7-yl)benzoyl]-2,4-dihydro-1,3-benzoxazin-8-yl]-5-fluoro-2-(3-oxa-8-azabicyclo[3.2.1]octan-8-yl)benzoic acid]	4.7
Cn1nnc2c(-c3cc(Cl)c(C(=O)N4COc5c(cccc5-c5cc(N6C7CCC6COC7)c(C(=O)O)cc5F)C4)c(Cl)c3)cncc21 [Compound 3-11, 4-[3-[2,6-Dichloro-4-(3-methyltriazolo[4,5-c]pyridin-7-yl)benzoyl]-2,4-dihydro-1,3-benzoxazin-8-yl]-5-fluoro-2-(3-oxa-8-azabicyclo[3.2.1]octan-8-yl)benzoic acid]	5.7
Cn1cc2cc(-c3cc(Cl)c(C(=O)N4COc5c(cccc5-c5cc(N6C7CCC6COC7)c(C(=O)O)cc5F)C4)c(Cl)c3)ccc2n1 [Compound 3-12, 4-[3-[2,6-Dichloro-4-(2-methylindazol-5-yl)benzoyl]-2,4-dihydro-1,3-benzoxazin-8-yl]-5-fluoro-2-(3-oxa-8-azabicyclo[3.2.1]octan-8-yl)benzoic acid]	8.7
Cn1cc2nc(-c3cc(Cl)c(C(=O)N4COc5c(cccc5-c5cc(N6C7CCC6COC7)c(C(=O)O)cc5F)C4)c(Cl)c3)ccc2n1 [Compound 3-13, 4-[3-[2,6-Dichloro-4-(2-methylpyrazolo[4,3-b]pyridin-5-yl)benzoyl]-2,4-dihydro-1,3-benzoxazin-8-yl]-5-fluoro-2-(3-oxa-8-azabicyclo[3.2.1]octan-8-yl)benzoic acid]	9.7
Cn1ncc2cc(-c3cc(Cl)c(C(=O)N4COc5c(cccc5-c5cc(N6C7CCC6COC7)c(C(=O)O)cc5F)C4)c(Cl)c3)cnc21 [Compound 3-14, 4-[3-[2,6-Dichloro-4-(1-methylpyrazolo[3,4-b]pyridin-5-yl)benzoyl]-2,4-dihydro-1,3-benzoxazin-8-yl]-5-fluoro-2-(3-oxa-8-azabicyclo[3.2.1]octan-8-yl)benzoic acid]	8.8
Cn1ncc2cc(-c3cc(Cl)c(C(=O)N4COc5c(cccc5-c5cc(N6C7CCC6COC7)c(C(=O)O)cc5F)C4)c(Cl)c3)ccc21 [Compound 3-15, 4-[3-[2,6-Dichloro-4-(1-methylindazol-5-yl)benzoyl]-2,4-dihydro-1,3-benzoxazin-8-yl]-5-fluoro-2-(3-oxa-8-azabicyclo[3.2.1]octan-8-yl)benzoic acid]	8.4
Cn1ncc2c(-c3cc(Cl)c(C(=O)N4COc5c(cccc5-c5cc(N6C7CCC6COC7)c(C(=O)O)cc5F)C4)c(Cl)c3)ccnc21 [Compound 3-16, 4-[3-[2,6-Dichloro-4-(1-methylpyrazolo[3,4-b]pyridin-4-yl)benzoyl]-2,4-dihydro-1,3-benzoxazin-8-yl]-5-fluoro-2-(3-oxa-8-azabicyclo[3.2.1]octan-8-yl)benzoic acid]	11
Cn1nc2nccc(-c3cc(Cl)c(C(=O)N4COc5c(cccc5-c5cc(N6C7CCC6COC7)c(C(=O)O)cc5F)C4)c(Cl)c3)c2n1 [Compound 3-17, 4-[3-[2,6-Dichloro-4-(2-methyltriazolo[4,5-b]pyridin-7-yl)benzoyl]-2,4-dihydro-1,3-benzoxazin-8-yl]-5-fluoro-2-(3-oxa-8-azabicyclo[3.2.1]octan-8-yl)benzoic acid]	12
O=C(O)c1cc(F)c(-c2cccc3c2OCN(C(=O)c2c(Cl)cc(-c4ccn5cncc5c4)cc2Cl)C3)cc1N1C2CCC1COC2 [Compound 3-18, 4-[3-(2,6-Dichloro-4-imidazo[1,5-a]pyridin-7-ylbenzoyl)-2,4-dihydro-1,3-benzoxazin-8-yl]-5-fluoro-2-(3-oxa-8-azabicyclo[3.2.1]octan-8-yl)benzoic acid]	20
Cn1nnc2c(-c3cc(Cl)c(C(=O)N4COc5c(cccc5-c5cc(N6C7CCC6COC7)c(C(=O)O)cc5F)C4)c(Cl)c3)ccnc21 [Compound 3-19, 4-[3-[2,6-Dichloro-4-(3-methyltriazolo[4,5-b]pyridin-7-yl)benzoyl]-2,4-dihydro-1,3-benzoxazin-8-yl]-5-fluoro-2-(3-oxa-8-azabicyclo[3.2.1]octan-8-yl)benzoic acid]	8
Cn1nc2cc(-c3cc(Cl)c(C(=O)N4COc5c(cccc5-c5cc(N6C7CCC6COC7)c(C(=O)O)cc5F)C4)c(Cl)c3)cnc2n1 [Compound 3-20, 4-[3-[2,6-Dichloro-4-(2-methyltriazolo[4,5-b]pyridin-6-yl)benzoyl]-2,4-dihydro-1,3-benzoxazin-8-yl]-5-fluoro-2-(3-oxa-8-azabicyclo[3.2.1]octan-8-yl)benzoic acid]	9
Cn1cc(-c2cc(Cl)c(C(=O)N3COc4c(cccc4-c4cc(N5C6CCC5COC6)c(C(=O)O)cc4F)C3)c(Cl)c2)c2nccnc21 [Compound 3-21, 4-[3-[2,6-Dichloro-4-(5-methylpyrrolo[2,3-b]pyrazin-7-yl)benzoyl]-2,4-dihydro-1,3-benzoxazin-8-yl]-5-fluoro-2-(3-oxa-8-azabicyclo[3.2.1]octan-8-yl)benzoic acid]	6.4
O=C(O)c1cc(F)c(-c2cccc3c2OCN(C(=O)c2c(Cl)cc(-c4cnc5n4CCC5)cc2Cl)C3)cc1N1C2CCC1COC2 [Compound 3-22, 4-[3-[2,6-Dichloro-4-(6,7-dihydro-5H-pyrrolo[1,2-a]imidazol-3-yl)benzoyl]-2,4-dihydro-1,3-benzoxazin-8-yl]-5-fluoro-2-(3-oxa-8-azabicyclo[3.2.1]octan-8-yl)benzoic acid]	21
O=C(O)c1cc(F)c(-c2cccc3c2OCN(C(=O)c2c(Cl)cc(-c4cc5ccccc5o4)cc2Cl)C3)cc1N1C2CCC1COC2 [Compound 3-23, 4-[3-[4-(1-Benzofuran-2-yl)-2,6-dichlorobenzoyl]-2,4-dihydro-1,3-benzoxazin-8-yl]-5-fluoro-2-(3-oxa-8-azabicyclo[3.2.1]octan-8-yl)benzoic acid]	21
O=C(O)c1cc(F)c(-c2cccc3c2OCN(C(=O)c2c(Cl)cc(-c4cccc5ccoc45)cc2Cl)C3)cc1N1C2CCC1COC2 [Compound 3-24, 4-[3-[4-(1-Benzofuran-7-yl)-2,6-dichlorobenzoyl]-2,4-dihydro-1,3-benzoxazin-8-yl]-5-fluoro-2-(3-oxa-8-azabicyclo[3.2.1]octan-8-yl)benzoic acid]	31
O=C(O)c1cc(F)c(-c2cccc3c2OCN(C(=O)c2c(Cl)cc(-c4cncc5ccoc45)cc2Cl)C3)cc1N1C2CCC1COC2 [Compound 3-25, 4-[3-(2,6-Dichloro-4-furo[3,2-c]pyridin-7-ylbenzoyl)-2,4-dihydro-1,3-benzoxazin-8-yl]-5-fluoro-2-(3-oxa-8-azabicyclo[3.2.1]octan-8-yl)benzoic acid]	7.7
